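Each compound was tested at five concentrations against cells in 96-well plates for 48 hours. At the GI50, growth is halved. TGI denotes the concentration required for complete inhibition of growth.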
What was measured:
Test in all cases: inhibition of tumour cell growth, NCI panel, 48 h
[1] = tested on: A549 NSCLC
[2] = tested on: HCT-116 colon
[3] = tested on: SF-295 CNS
[4] = tested on: SF-539 CNS
[5] = tested on: SK-MEL-28 melanoma
[6] = tested on: SW-620 colon
[7] = tested on: UACC-257 melanoma
[8] = tested on: A498 renal
[9] = tested on: HOP-92 NSCLC
[10] = tested on: RXF 393 renal
[11] = tested on: DU-145 prostate
[12] = tested on: MCF7 breast
[13] = tested on: MDA-MB-435
[14] = tested on: HS 578T breast

SMILES	TGI [1] [µM]	TGI [2] [µM]	TGI [3] [µM]	TGI [4] [µM]	TGI [5] [µM]	TGI [6] [µM]	TGI [7] [µM]	TGI [8] [µM]	TGI [9] [µM]	TGI [10] [µM]	TGI [11] [µM]	TGI [12] [µM]	TGI [13] [µM]	TGI [14] [µM]	GI50 [1] [µM]	GI50 [9] [µM]	GI50 [10] [µM]	GI50 [3] [µM]	GI50 [7] [µM]	GI50 [2] [µM]
CC1(C)CC(C2CC(C)(C)CC(C)(C)[C@H]2O)[C@@H](O)C(C)(C)C1 (stereo not given in full)	> 100	> 100	> 100	> 100	> 100	> 100	> 100	–	–	–	–	–	–	–	–	–	–	–	–	–
COc1cccc(/C=N/[N-]C(N)=O)c1[O-].[OH3+].[Zn+2]	> 100	> 100	> 100	> 100	> 100	> 100	> 100	> 100	> 100	> 100	–	–	–	–	–	–	–	–	–	–
CCOC(=O)c1c(C)n(-c2ccc(C)cc2)c2c1cc(O)c1[nH]c3c(c12)CCCC3	> 100	92.6	65.2	30.2	33.1	39	56.7	56.2	23.6	27	42.5	65.6	62.2	–	–	–	–	–	–	–
N=C1SCCS1	> 100	> 100	> 100	> 100	> 100	> 100	> 100	–	> 100	–	–	–	–	–	–	–	–	–	–	–
COc1ccc([N+](=O)[O-])cc1[I+]c1cc([N+](=O)[O-])ccc1OC	> 100	> 100	> 100	> 100	21.8	> 100	> 100	> 100	–	> 100	> 100	> 100	49.3	> 100	–	–	–	–	–	–
[N-]=[N+]=NC1=C(N=[N+]=[N-])c2cccc3cccc(c23)C1=O	> 100	> 100	> 100	> 100	–	> 100	> 100	> 100	> 100	> 100	–	> 100	> 100	> 100	–	–	–	–	–	–
COc1cc(O)c2c(=O)cc(C3(OC(C)=O)C=CC(OC4OC(CO)C(O)C(O)C4O)C=C3)oc2c1 (stereo not given)	> 100	> 100	> 100	> 100	> 100	> 100	> 100	> 100	> 100	> 100	> 100	> 100	> 100	–	–	–	–	–	–	–
CCOC(=O)/C(C#N)=N\Nc1ccc(-n2c(C)nc3ccc(Br)cc3c2=O)cc1	> 100	> 100	> 100	> 100	> 100	> 100	> 100	> 100	> 100	–	> 100	> 100	> 100	> 100	–	–	–	–	–	–
Cc1ccc2c(c1)C(=O)c1ccc(C)nc1C2=O	> 100	42.1	> 100	68.5	> 100	> 100	48.9	> 100	–	> 100	> 100	> 100	37.6	> 100	–	–	–	–	–	–
O=C1NCC2=C1CCC1c3ccccc3CCN21 (stereo not given)	> 100	> 100	> 100	> 100	> 100	> 100	> 100	> 100	> 100	> 100	–	–	–	–	–	–	–	–	–	–
O=C(CC(C(=O)c1ccsc1)c1cccs1)c1ccsc1 (stereo not given)	> 100	–	> 100	–	> 100	> 100	> 100	> 100	–	–	> 100	> 100	> 100	–	–	–	–	–	–	–
CC[n+]1c(/C=C/c2ccc(N(CCCl)CCCl)cc2)ccc2cc(Br)ccc21	–	482	–	4.29	2.52	14.7	–	6900	–	–	–	–	–	–	1370	92.7	588	1150	95.8	–
CCOC(=O)C(NC(=O)Nc1ccccc1F)(OC)C(F)(F)F (stereo not given)	> 100	> 100	–	> 100	> 100	> 100	> 100	> 100	–	> 100	–	–	> 100	> 100	–	–	–	–	–	–
O=c1[nH]nc(Cc2ccc(Cl)cc2)n1Nc1ccccc1	> 100	> 100	> 100	> 100	> 100	> 100	> 100	> 100	> 100	–	27.8	> 100	> 100	> 100	–	–	–	–	–	–
COc1ccc(C(c2ccccc2)N2C(=O)CCC2C(=O)O)cc1OC (stereo not given)	> 100	> 100	> 100	> 100	> 100	> 100	> 100	> 100	> 100	–	> 100	> 100	> 100	> 100	–	–	–	–	–	–
CN(N=O)C(N)=NC(=O)c1ccccc1	> 100	> 100	> 100	> 100	–	> 100	> 100	> 100	> 100	> 100	–	> 100	> 100	> 100	–	–	–	–	–	–
c1ccc2c(-c3ccnc(-c4c[nH]c5ccccc45)n3)c[nH]c2c1	> 100	15.4	> 100	> 100	> 100	25.9	> 100	5.33	5.83	–	44.5	54.2	> 100	> 100	–	–	–	–	–	–
CC(=O)/C(=C\n1c(=S)[nH]c2ccc([N+](=O)[O-])cc21)C(=O)Nc1ccccc1C	> 100	> 100	> 100	> 100	> 100	> 100	> 100	> 100	–	> 100	> 100	> 100	> 100	–	–	–	–	–	–	–
NC(=S)NS(=O)(=O)c1ccc(F)cc1	> 100	> 100	> 100	> 100	> 100	> 100	> 100	–	> 100	> 100	> 100	–	> 100	> 100	–	–	–	–	–	–

SMILES	TGI [1] [µM]	TGI [2] [µM]	TGI [3] [µM]	TGI [4] [µM]	TGI [5] [µM]	TGI [6] [µM]	TGI [7] [µM]	TGI [8] [µM]	TGI [9] [µM]	TGI [10] [µM]	TGI [11] [µM]	TGI [12] [µM]	TGI [13] [µM]	TGI [14] [µM]	GI50 [1] [µM]	GI50 [9] [µM]	GI50 [10] [µM]	GI50 [3] [µM]	GI50 [7] [µM]	GI50 [2] [µM]
COC(=O)/C=C(\S/C(=C(/c1ccccc1)n1cc(C(=O)OC)c(C(=O)OC)n1)c1ccccc1)C(=O)OC	62.6	37.1	> 100	32.4	60.4	16.9	23.9	> 100	–	31.4	29.1	22.9	32.9	96.3	–	–	–	–	–	–
C[C@H]1ON2CCC[C@@H]2[C@@H]1C(=O)N1C2CC3CCC2(CS1(=O)=O)C3(C)C (stereo not given in full)	> 100	> 100	> 100	> 100	> 100	> 100	> 100	> 100	–	> 100	> 100	> 100	> 100	> 100	–	–	–	–	–	–
CCCNc1c(Cl)cc(Cl)c2[nH]c3ccccc3c(=O)c12	> 100	> 100	> 100	> 100	> 100	> 100	> 100	> 100	35	–	–	> 100	> 100	–	–	–	–	–	–	–
CCCN=C1S/C(=C/c2ccc(OC)c(OC)c2)C(=O)N1c1ccccc1	> 100	> 100	34.9	30.2	> 100	> 100	> 100	58.2	> 100	–	–	> 100	> 100	> 100	–	–	–	–	–	–
Nc1nc(SCC(=O)c2ccccc2)nc2nc3c(c(-c4ccccc4)c12)CCCC3	> 100	> 100	–	> 100	61.9	–	> 100	42.9	–	70.8	> 100	> 100	> 100	64	–	–	–	–	–	–
c1ccc(NC2(c3nnnn3C3CCCCC3)CCNCC2)cc1	> 100	28.5	34.6	30	32.5	43.4	30.6	51	32.3	–	> 100	35.1	38	32.2	–	–	–	–	–	–
O=[N+]([O-])c1ccc2nc(/C=C(\O)c3ccccc3)c(/C=C(\O)c3ccc(Cl)cc3)nc2c1	> 100	> 100	> 100	> 100	–	–	> 100	> 100	–	83.9	> 100	> 100	> 100	–	–	–	–	–	–	–
CC1(C)O[C@@H]([C@@H](O)[C@H](O)C2SCCCS2)[C@@H](CO)O1	> 100	> 100	> 100	–	> 100	> 100	> 100	> 100	> 100	> 100	> 100	–	> 100	> 100	–	–	–	–	–	–
CC(=O)Nc1ccccc1S(=O)(=O)c1c(-c2c(C)c(Cl)c(C)c(Cl)c2C)noc1C	> 100	> 100	> 100	–	> 100	> 100	> 100	> 100	–	> 100	> 100	> 100	> 100	73.7	–	–	–	–	–	–
COc1ccc(OC)c(CC(=O)c2ccc(O)c(C(=O)NCCc3ccc(F)cc3)c2)c1	37.6	19.9	10.1	–	> 100	> 100	44.8	47	41.4	2.9	–	24.6	–	8.69	–	–	–	–	–	4.05
c1cc(-c2ccc(Oc3ccc(-c4ccncc4)cc3)cc2)ccn1	> 100	> 100	> 100	> 100	> 95.1	> 100	> 68.3	> 69.7	> 88.6	> 86	> 100	> 100	–	> 69.9	–	–	–	–	–	–
CC(C)=CCc1c(O)c(CC=C(C)C)c2oc3c(c(=O)c2c1O)C(C=C(C)C)Oc1cc(O)ccc1-3 (stereo not given)	20.6	13.2	19.2	25.5	21.5	18.1	26.9	29.8	28.3	–	24.3	17.5	13.7	43.8	–	–	–	–	–	–
Cc1c(/C=N\NC(=S)N(C)CCN(C)C(=S)N/N=C\c2c(C)n(C)n(-c3ccccc3)c2=O)c(=O)n(-c2ccccc2)n1C	> 100	> 100	> 100	> 100	–	> 100	> 100	> 100	> 100	> 100	> 100	–	> 100	> 100	–	–	–	–	–	–
CN(Cc1cnc2nc(N)nc(N)c2n1)c1ccc(C(=O)NC2CCCCC2)cc1	–	> 100	> 100	29.7	–	> 100	> 100	77.3	–	> 100	> 100	> 100	–	63.4	–	–	–	–	–	–
O=C(O)C1CCCCN1CCc1c[nH]c2ccccc12 (stereo not given)	> 100	> 100	> 100	> 100	> 100	> 100	> 100	–	> 100	> 100	> 100	> 100	> 100	–	–	–	–	–	–	–
CSc1ccc(C=C2N=C(c3ccccc3)N(c3cc(C(=O)c4ccccc4)ccc3N3C(=O)/C(=C/c4ccc(SC)cc4)N=C3c3ccccc3)C2=O)cc1	> 100	> 100	> 100	79.5	> 100	> 100	> 100	> 100	> 100	–	> 100	> 100	> 100	> 100	–	–	–	–	–	–
COC1(CCO)CC=CCC1(CCO)OC (stereo not given)	> 100	> 100	> 100	–	> 100	> 100	> 100	–	> 100	–	> 100	> 100	–	> 100	–	–	–	–	–	–
CCOP(=O)(OCC)OC1CC(n2cnc3c(N(CC)CC)ncnc32)OC1CO[Si](C)(C)C(C)(C)C (stereo not given)	29.8	30.6	31	33.8	36.3	35.2	32.4	–	–	32.3	28.8	39.8	31.7	77.1	–	–	–	–	–	–

From PubChem BioAssay (NCI)
